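1) Cells in 96-well plates. 2) Compound, 48 h, 5 concentrations. 3) Linear interpolation between surrounding doses. 4) Unreached endpoint = highest concentration. At the GI50, growth is halved.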 Calls of active or inactive are those of the source. Rule as the data show it: active = GI50 up to about 1.1 µM and inactive = higher.
Legend:
Assay in all cases: growth of human tumour cells (NCI), 48 h
[1] = system: NCI-H226
[2] = system: CCRF-CEM
[3] = system: A498
[4] = system: MDA-N
[5] = system: HCC 2998
[6] = system: MDA-MB-231
[7] = system: ACHN
[8] = system: KM12
[9] = system: CAKI-1
[10] = system: SN12C
[11] = system: NCI-H23
[12] = system: SNB-75
[13] = system: SF-268
[14] = system: NCI-H460
[15] = system: OVCAR-4
[16] = system: BT-549
[17] = system: SNB-19
[18] = system: K562
[19] = system: TK-10
[20] = system: SR
[21] = system: HCT-15
[22] = system: HL-60
[23] = system: HOP-92
[24] = system: NCI/ADR-RES
[25] = system: MOLT-4
[26] = system: SK-MEL-28
[27] = system: UACC-62
[28] = system: OVCAR-8
[29] = system: MDA-MB-435
[30] = system: SW-620
[31] = system: UACC-257
[32] = system: U-251
[33] = system: RPMI-8226
[34] = system: UO-31
[35] = system: SF-539
[36] = system: PC-3
[37] = system: DU-145
[38] = system: A549
[39] = system: IGROV-1
[40] = system: SK-OV-3
[41] = system: EKVX
[42] = system: 786-0
[43] = system: SF-295
[44] = system: HOP-62
[45] = system: SK-MEL-5
[46] = system: OVCAR-5
[47] = system: OVCAR-3
[48] = system: M14
[49] = system: HT-29
[50] = system: MCF7
[51] = system: SK-MEL-2
[52] = system: HCT-116
[53] = system: LOX IMVI
[54] = system: COLO 205
[55] = system: Malme-3M

For `CC1(C)/C(=N\O)C2(C#N)CCC1C2` (configuration not stated), the GI50 [1] was > 100 µM (inactive), the GI50 [2] was > 100 µM (inactive) and the GI50 [3] was > 100 µM (inactive). The GI50 [4] was > 100 µM (inactive), the GI50 [5] was > 100 µM (inactive) and the GI50 [6] was > 100 µM (inactive). The GI50 [7] was > 100 µM (inactive), the GI50 [8] was > 100 µM (inactive) and the GI50 [9] was > 100 µM (inactive). For the same compound, the GI50 [10] was > 100 µM (inactive), the GI50 [11] was > 100 µM (inactive) and the GI50 [12] was > 100 µM (inactive). The GI50 [13] was > 100 µM (inactive), the GI50 [14] was > 100 µM (inactive) and the GI50 [15] was > 100 µM (inactive). The GI50 [16] was > 100 µM (inactive), the GI50 [17] was > 100 µM (inactive) and the GI50 [18] was > 100 µM (inactive). The GI50 [19] was > 100 µM (inactive), the GI50 [20] was > 100 µM (inactive) and the GI50 [21] was over 100 µM. For the same compound, the GI50 [22] was > 100 µM (inactive), the GI50 [23] was > 100 µM (inactive) and the GI50 [24] was > 100 µM (inactive). The GI50 [25] was > 100 µM (inactive), the GI50 [26] was > 100 µM (inactive) and the GI50 [27] was > 100 µM (inactive). The GI50 [28] was > 100 µM (inactive), the GI50 [29] was > 100 µM (inactive) and the GI50 [30] was > 100 µM (inactive). For the same compound, the GI50 [31] was > 100 µM (inactive), the GI50 [32] was > 100 µM (inactive) and the GI50 [33] was > 100 µM (inactive). For the same compound, the GI50 [34] was > 100 µM (inactive).

For `Cc1cc(S(=O)(=O)Nc2nc3ccccc3c(=O)n2N)c(S)cc1Cl`, the GI50 [1] was 21.7 µM (inactive), the GI50 [2] was 62.5 µM (inactive) and the GI50 [35] was 27.6 µM (inactive). For the same compound, the GI50 [4] was 38.1 µM (inactive), the GI50 [36] was 69.3 µM (inactive) and the GI50 [5] was 49.3 µM (inactive). The GI50 [6] was 32.9 µM (inactive), the GI50 [7] was 33.6 µM (inactive) and the GI50 [37] was 43 µM (inactive). The GI50 [8] was 37.2 µM (inactive), the GI50 [38] was 31.1 µM (inactive) and the GI50 [39] was 43.8 µM (inactive). For the same compound, the GI50 [9] was 31.8 µM (inactive), the GI50 [10] was 44.5 µM (inactive) and the GI50 [40] was 32.3 µM (inactive). For the same compound, the GI50 [41] was 43.6 µM (inactive), the GI50 [42] was 21.3 µM (inactive) and the GI50 [11] was 31.8 µM (inactive). For the same compound, the GI50 [43] was 28.3 µM (inactive), the GI50 [14] was 33.4 µM (inactive) and the GI50 [44] was 14.8 µM (inactive). For the same compound, the GI50 [15] was 29.6 µM (inactive), the GI50 [16] was 47.6 µM (inactive) and the GI50 [45] was 29.6 µM (inactive). The GI50 [18] was 47.2 µM (inactive), the GI50 [46] was 55.5 µM (inactive) and the GI50 [47] was 44.6 µM (inactive). For the same compound, the GI50 [19] was 48.1 µM (inactive), the GI50 [48] was 39.6 µM (inactive) and the GI50 [49] was 53 µM (inactive). For the same compound, the GI50 [50] was 71.1 µM (inactive), the GI50 [21] was 35.5 µM and the GI50 [22] was > 100 µM (inactive). For the same compound, the GI50 [51] was 29.3 µM (inactive), the GI50 [24] was 24.5 µM (inactive) and the GI50 [25] was 47.6 µM (inactive). The GI50 [26] was 67.9 µM (inactive), the GI50 [52] was 32 µM (inactive) and the GI50 [53] was 37.2 µM (inactive). For the same compound, the GI50 [27] was 20.7 µM (inactive), the GI50 [28] was 30.2 µM (inactive) and the GI50 [29] was 32.7 µM (inactive). For the same compound, the GI50 [30] was 59.8 µM (inactive), the GI50 [31] was 59.8 µM (inactive) and the GI50 [32] was 23.1 µM (inactive). For the same compound, the GI50 [54] was > 100 µM (inactive), the GI50 [55] was 23.1 µM (inactive) and the GI50 [33] was 34.7 µM (inactive).
